Literature values, collected in PMC7401249 (Marine Drugs, 2020).
Entries after “also recorded” stand apart in the source; their conditions may differ.

Substance | inhibition of CaV3.1 current over CaV3.2 (CaV3.1) | NaV1.7 block (NaV1.7) | hCaV3.2 current block among three CaV3.x subtypes (hCaV3.2)
ProTx-I | selective inhibition |  | 
ProTx-II |  | NaV1.7 selective blocker; also recorded: inhibits NaV1.7 | selectively block the hCaV3.2 current
